Source: patent EP2155158B1, “PERSONAL LUBRICANT COMPOSITION” (LRC Products Limited, priority 2007, dated 2008)
Like-named read-outs stand apart in the source and are kept apart here.

What was measured:
[1] = Cooling strength of coolants relative to menthol; conditions: menthol = 100
Excerpt: N-ethyl-p-menthane-3-carboxamide has, to date, primarily been used in oral, medicinal and confectionary products, such as breath freshening chewing gums. […]

[2] = Crystallisation / clouding at low temperatures; format: physicochemical
[3] = Volatility compared with menthol; format: physicochemical

Compound	Cooling strength relative to menthol [1]	further results
CCNC(=O)C1CC(C)CCC1C(C)C (stereo not shown) [WS-3, N-ethyl-p-menthane-3-carboxamide]	150	crystallisation at low temperatures [2]: does not crystallise at low temperatures; volatility [3]: lower volatility than menthol; loss of coolant on storage (reduction in the level of retained coolant) (in personal lubricant formulation, storage for 3 months at 40°C): no loss
CNC(=O)C(C)(C(C)C)C(C)C [WS-23]	75	–
CC1CCC(C(C)C)C(OC(=O)C(C)O)C1 (stereo not shown) [Menthyl lactate]	43	–
CC1CCC(C(C)C)C(O)C1 (stereo not shown) [Menthol]	100	loss of coolant on storage (reduction in the level of retained coolant) (personal lubricant formulation, 2190 h): about 50%
C=C(C)C1CCC(C)CC1O (stereo not shown) [Isopulegol, 2-isopropenyl-5-methyl-cyclohexanol]	25	–
Menthone lactate	41	–
